From ChEMBL document CHEMBL1201862, “PubChem BioAssay data set” (2004) come the findings set out here.

Among the test systems are SF-268; OVCAR-5; SF-539; HCT-116; SK-OV-3; A549; SK-MEL-2; BT-549; MOLT-4; SK-MEL-28; NCI-H23; K562; HCT-15; NCI-H460; EKVX; MDA-MB-231; MDA-MB-435; KM-20L2; M19-MEL.
Assay in all cases: NCI-60 cell line screen, 48 h

SMILES strings stand for the structures.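 Where inhibition never reached the appropriate level, the endpoint shown equals the highest concentration tested. Otherwise, values were interpolated linearly from a five-concentration, 48-hour dose response in 96-well plates. Abbreviation: GI50, concentration required for 50% inhibition of growth.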 Active and inactive are the calls of the source. Cut-off read from the data, not from the text of the source: active = GI50 up to about 1.1 µM and inactive = higher.

Take `C[N+]1(C)CCc2cc(O)c(O)cc2C1Cc1ccc(O)c(O)c1` (stereo not drawn): the GI50 is 39.6 µM (inactive) in the assay on SF-268; > 100 µM (inactive) with OVCAR-5; 50.4 µM (inactive) with SF-539; 22.4 µM (inactive) with HCT-116; > 100 µM (inactive) in the assay on SK-OV-3; > 100 µM (inactive) in the assay with A549. The GI50 is 1.11 µM (active) in the assay with SK-MEL-2; > 100 µM (inactive) with BT-549; 23 µM (inactive) in the assay with MOLT-4; 99.8 µM (inactive) in the assay with SK-MEL-28; > 100 µM (inactive) in the assay with NCI-H23; 34 µM (inactive) with K562. In addition, the GI50 in the assay on HCT-15 was 36 µM; in the assay with NCI-H460 it was 63.7 µM (inactive); in the assay with EKVX it was > 100 µM (inactive); in the assay on MDA-MB-231, 31.1 µM (inactive); with MDA-MB-435 it was 20.2 µM (inactive).

On to `C/C=C/CC(C)[C@@H](O)[C@H](NC)C(=O)O` (stereo partly drawn), for which the GI50 in the assay with SF-268, with OVCAR-5, with KM-20L2, with SF-539, in the assay on SK-OV-3 and in the assay with A549 was > 100 µM (inactive) in each case. The GI50 in the assay on SK-MEL-2, in the assay with MOLT-4, with SK-MEL-28, in the assay with NCI-H23, in the assay on K562 and in the assay on M19-MEL was > 100 µM (inactive) in each case. The GI50 was over 100 µM with HCT-15, > 100 µM (inactive) in the assay on NCI-H460 and > 100 µM (inactive) with EKVX.

Turning to `COc1ccc(OC)c2c(=S)c3ccccc3[nH]c12`, the GI50 in the assay on SF-268 is > 86.1 µM (inactive); in the assay on OVCAR-5 it was > 94.8 µM (inactive); in the assay with KM-20L2 it was > 100 µM (inactive); in the assay with SF-539, > 79.1 µM (inactive); with HCT-116, 64.6 µM (inactive); in the assay with SK-OV-3, > 100 µM (inactive). Moreover, the GI50 was > 100 µM (inactive) in the assay on A549; > 100 µM (inactive) in the assay with SK-MEL-2; > 100 µM (inactive) with BT-549; 39.4 µM (inactive) in the assay on MOLT-4; > 100 µM (inactive) with SK-MEL-28; 99.8 µM (inactive) in the assay on NCI-H23. Further, the GI50 in the assay on K562 is 36.3 µM (inactive); with M19-MEL, > 100 µM (inactive); in the assay with HCT-15, 47.5 µM; in the assay with NCI-H460 it was > 63 µM (inactive); in the assay with EKVX, > 90.2 µM (inactive); with MDA-MB-231, > 100 µM (inactive). Further, the GI50 in the assay on MDA-MB-435 was 71.3 µM (inactive).

For `O=C(O)Cc1nc[nH]c1C(=O)O`, the GI50 in the assay on SF-268, in the assay with OVCAR-5, in the assay on SF-539, in the assay with HCT-116, in the assay on SK-OV-3 and in the assay on A549 was > 100 µM (inactive) throughout. Moreover, the GI50 in the assay with SK-MEL-2, with BT-549, with MOLT-4, in the assay with SK-MEL-28, in the assay on NCI-H23 and in the assay with K562 was > 100 µM (inactive) each time. Also, the GI50 in the assay on HCT-15 is over 100 µM; with NCI-H460 it was > 100 µM (inactive); in the assay with EKVX, > 100 µM (inactive); in the assay on MDA-MB-231 it was > 100 µM (inactive); in the assay on MDA-MB-435, > 100 µM (inactive).

Take `O=C(Nc1sccc1S(=O)(=O)c1ccc(Cl)cc1)c1ccccc1`: the GI50 was > 100 µM (inactive) in the assay on SF-268; > 100 µM (inactive) with OVCAR-5; 60.1 µM (inactive) in the assay with SF-539; > 100 µM (inactive) in the assay with HCT-116; > 100 µM (inactive) with SK-OV-3; > 100 µM (inactive) in the assay with A549. Also, the GI50 with SK-MEL-2, in the assay on BT-549, in the assay on MOLT-4, in the assay with SK-MEL-28, in the assay with NCI-H23 and with K562 was > 100 µM (inactive) in each case. Besides, the GI50 is over 100 µM in the assay with HCT-15; > 100 µM (inactive) in the assay on NCI-H460; > 100 µM (inactive) in the assay on EKVX; > 100 µM (inactive) in the assay with MDA-MB-231; > 100 µM (inactive) with MDA-MB-435.

In the case of `COc1ccc(OC)c(/C=C(/C#N)c2ccccc2)c1`, the GI50 is 34 µM (inactive) in the assay with SF-268; 56 µM (inactive) in the assay on OVCAR-5; 16.6 µM (inactive) in the assay on KM-20L2; 28.2 µM (inactive) in the assay with SF-539; 49.3 µM (inactive) in the assay with HCT-116; 50 µM (inactive) in the assay with SK-OV-3. The GI50 with A549 was 13.2 µM (inactive); in the assay on SK-MEL-2, 5.82 µM (inactive); in the assay with MOLT-4 it was 12.9 µM (inactive); in the assay on SK-MEL-28, 23.4 µM (inactive); in the assay with NCI-H23 it was 23.5 µM (inactive); in the assay with K562, 3.15 µM (inactive). Besides, the GI50 with M19-MEL is 22.2 µM (inactive); with HCT-15 it was 18.9 µM; in the assay on NCI-H460 it was 15.8 µM (inactive); with EKVX, 30.6 µM (inactive).

As for `CC(=O)Nc1ccc2c3c(cc(O)c2c1)N(C(=O)CCCCCC(=O)Nc1ccc2c4c(cc(O)c2c1)N(C(=O)OC(C)(C)C)CC4CCl)CC3CCl` (stereo not drawn), the GI50 in the assay on SF-268 was 0.646 µM (active); in the assay on OVCAR-5, 10 µM (inactive); in the assay on SF-539 it was 2.37 µM (inactive); with HCT-116 it was 1.67 µM (inactive); with SK-OV-3 it was 3.54 µM (inactive); in the assay with A549, 12.3 µM (inactive). Further, the GI50 was 1.76 µM (inactive) with SK-MEL-2; 1.87 µM (inactive) with BT-549; 0.0585 µM (active) in the assay on MOLT-4; 6.28 µM (inactive) with SK-MEL-28; 0.8 µM (active) with NCI-H23; 3.3 µM (inactive) with K562. Also, the GI50 in the assay on HCT-15 was over 100 µM; in the assay on NCI-H460 it was 0.625 µM (active); in the assay with EKVX, 41.9 µM (inactive); with MDA-MB-231, 4.33 µM (inactive); with MDA-MB-435, 1.63 µM (inactive).

`Oc1ccc(Cl)cc1-c1cc(-c2ccccc2)nc(NCN2CCCCC2)n1`: the GI50 is 7.14 µM (inactive) with SF-268; > 100 µM (inactive) in the assay with OVCAR-5; > 100 µM (inactive) in the assay with SF-539; 6.68 µM (inactive) with HCT-116; > 100 µM (inactive) in the assay on SK-OV-3; > 100 µM (inactive) in the assay with A549. Also, the GI50 in the assay on SK-MEL-2 is > 100 µM (inactive); in the assay with BT-549, > 100 µM (inactive); in the assay with MOLT-4, > 100 µM (inactive); in the assay with SK-MEL-28 it was > 100 µM (inactive); in the assay on NCI-H23, 72.1 µM (inactive); in the assay on K562, > 100 µM (inactive). Further, the GI50 in the assay with HCT-15 is 5.02 µM; in the assay with NCI-H460, > 100 µM (inactive); in the assay with EKVX, > 100 µM (inactive); in the assay on MDA-MB-231 it was > 100 µM (inactive); with MDA-MB-435, > 100 µM (inactive).

Consider `CCOC1C=CC(=O)C(CO)O1` (stereo not drawn), for which the GI50 was 14.1 µM (inactive) with SF-268; 18.1 µM (inactive) in the assay on OVCAR-5; 9.02 µM (inactive) with SF-539; 5.12 µM (inactive) with HCT-116; 18.8 µM (inactive) in the assay on SK-OV-3; 17.6 µM (inactive) in the assay on A549. The GI50 was 19.4 µM (inactive) in the assay with SK-MEL-2; 11.6 µM (inactive) with BT-549; 6.65 µM (inactive) in the assay on MOLT-4; 16.9 µM (inactive) in the assay on SK-MEL-28; 12.6 µM (inactive) in the assay on NCI-H23; 6.67 µM (inactive) in the assay with K562. Further, the GI50 in the assay on HCT-15 was 10 µM; in the assay on NCI-H460, 14.5 µM (inactive); with EKVX, 14.3 µM (inactive); with MDA-MB-231, 17.3 µM (inactive); with MDA-MB-435, 12.2 µM (inactive).

For the compound `COC(=O)c1cc(S(=O)(=O)NC2=NNC(C)CN2)c(S)cc1Cl` (stereo not drawn), the GI50 in the assay with SF-268 was 13.5 µM (inactive); in the assay on OVCAR-5, 65.3 µM (inactive); in the assay on SF-539, 40.5 µM (inactive); with HCT-116 it was 30.6 µM (inactive); in the assay on SK-OV-3, > 100 µM (inactive); in the assay on A549 it was 30.1 µM (inactive). For the same compound, the GI50 in the assay on SK-MEL-2 was 26 µM (inactive); in the assay with BT-549 it was > 100 µM (inactive); with MOLT-4 it was 77.3 µM (inactive); in the assay on SK-MEL-28 it was 36.7 µM (inactive); in the assay on NCI-H23, 44.8 µM (inactive); in the assay with K562, 47.1 µM (inactive). The GI50 in the assay on HCT-15 was 37.8 µM; in the assay on NCI-H460, 44.8 µM (inactive); with EKVX it was 90.2 µM (inactive); in the assay on MDA-MB-231 it was > 100 µM (inactive); with MDA-MB-435, 40.3 µM (inactive).

In the case of `COc1cc2c(cc1OC)C(N(C)C)C(c1ccccc1)=C2Cl` (stereo not drawn), the GI50 is 34 µM (inactive) in the assay with OVCAR-5; 25 µM (inactive) in the assay on KM-20L2; 20.5 µM (inactive) with SF-539; 22 µM (inactive) with SK-OV-3; 18.7 µM (inactive) in the assay with SK-MEL-2; 12.5 µM (inactive) in the assay on MOLT-4. The GI50 was 18.7 µM (inactive) in the assay with SK-MEL-28; 16.9 µM (inactive) in the assay with NCI-H23; 27.9 µM (inactive) in the assay on K562; 18.5 µM (inactive) in the assay with M19-MEL; 17.5 µM in the assay with HCT-15; 19 µM (inactive) in the assay with NCI-H460.

For `COc1cc2oc(-c3ccc(O)cc3O)c(CC=C(C)C)c(=O)c2c(O)c1/C=C/C(C)C` [ARTOCARPIN], the GI50 was 2.25 µM (inactive) with SF-268; 6.64 µM (inactive) with OVCAR-5; 4.91 µM (inactive) in the assay with SF-539; 2.1 µM (inactive) with HCT-116; 7.21 µM (inactive) in the assay with SK-OV-3; 2.75 µM (inactive) in the assay on A549. The GI50 is 6.41 µM (inactive) with SK-MEL-2; 5.45 µM (inactive) in the assay with BT-549; 2.33 µM (inactive) in the assay on MOLT-4; 5.85 µM (inactive) in the assay on SK-MEL-28; 3.24 µM (inactive) in the assay on NCI-H23; 2.12 µM (inactive) in the assay with K562. Moreover, the GI50 in the assay with HCT-15 is 2.96 µM; with NCI-H460, 3.21 µM (inactive); in the assay on EKVX it was 4.2 µM (inactive); with MDA-MB-231, 2.55 µM (inactive); in the assay on MDA-MB-435 it was 1.99 µM (inactive).
